Test results: US10071102B2, “Injectable mirtazapine for treating appetite loss and nutritional disorders in cats” (VIRBAC, priority 2013, dated 2018)

Test system: appetite of cats
Assay: Food consumption (appetite) of stressed healthy cats after dose administration
Type: in vivo, cat
Conditions: subcutaneous injection 3.75 mg vs oral 3.75 mg
From the text: The purpose of these tests is to evaluate the effect of administration of mirtazapine by subcutaneous injection on the appetite of cats as compared to dose administration by the oral route (positive control) and a control (injection of saline solution, negative control). The healthy cats selected were previously acclimated for at least seven days prior to testing; during this period, they were examined by a veterinarian. They were then divided into three groups of two cats each according to a cross-over experimental design, with each cat receiving each of the 3 treatments according to a predetermined sequence: • 0.5 ml of saline (0.9% sodium chloride) was administered by subcutaneous injection in the interscapular area to the T0 group which represents the negative control; • the group T1 received a subcutaneous injection, in the interscapular area, of 0.5 ml of the tested formulation of mirtazapine (represents a dose administration of 3.75 mg of mirtazapine); • the group T3 instead received 0.25 ml (represents a dose administration of 3.75 mg of mirtazapine) of the liquid formulation by means of forced administration (syringe) in the mouth and represents the positive control group. […] The food consumption is represented in FIGS. 2A (food consumption measured at each point) and 2B (cumulative food consumption).

In the case of `CN1CCN2c3ncccc3Cc3ccccc3C2C1` (centres unmarked) [mirtazapine, 1,2,3,4,10,14b-hexahydro-2-methylpyrazino(2,1-a)pyrido(2,3-c)benzazepine], the “duration of appetite induction compared with oral administration” value is reported as “inducing appetite for a longer time period” and the “increase in appetite (food consumption) compared with same dose by oral route” value is reported as “as effective as the administration of the same dose by oral route”.
